Data from US7176222B2, “Syntheses of ureas” (Cytokinetics, Inc., priority 2004, dated 2007).

SMILES: CC(=O)N1CCC[C@@H](Oc2cc(F)cc(NC(=O)Nc3cccnc3)c2)C1 [Example 1, (R)-1-[3-(1-Acetyl-piperidin-3-yloxy)-5-fluoro-phenyl]-3-pyridin-3-yl-urea]
- melting point: 145 °C
